Reference: patent US20230364118A1, “RIBITOL TREATMENT” (priority 2020, published 2023)
Entries after “also recorded” stand apart in the source; their conditions may differ. Read-outs that look alike come from different tables or passages of the source.

What was measured:
[1] = 7-day repeat-dose oral toxicokinetics; assay type: in vivo, CD-1 mouse; settings: for Cmax / Tmax / AUC(0-t): CD-1, mouse, plasma, po; for AUC(0-t): read-out: AUC0-24
Experimental: Toxicokinetics were evaluated as part of a 7-day oral repeat-dose dose range finding study in CD-1 mice. […] On Days 1 and 7, blood was collected for plasma toxicokinetics (TK) from the treatment groups at 0 (pre-first dose), 0.5, 2, 4, 6 (pre-second dose), 6.5, 8, 10, 12, and 24 hours post-first dose. In the vehicle control group, blood was collected for plasma TK on Day 1 and Day 7 at 0.5 and 6.5 hours post-first dose.

[2] = Single intravenous dose PK; assay type: in vivo, Bama minipig; settings: for CLs: Bama minipigs
Experimental: The PK of ribitol was studied in 2 male and 2 female Bama minipigs following escalating IV doses levels using the same animals with a 48 hour washout period at 10 mg/kg (Day 1), 30 mg/kg (Day 3) and 100 mg/kg (Day 5). On each dosing day, blood samples were collected serially up to 24 hours post dose.

[3] = Metabolic stability, all species; assay type: in vitro ADME, CD-1 mouse, Sprague-Dawley rat, Gottingen minipig, human; settings: incubated up to 2 hours, all four species
Experimental: Metabolic stability of ribitol was conducted in liver microsomes, cytosol, and primary hepatocytes, from CD-1 mouse, Sprague-Dawley rat, Gottingen minipig, and human at a concentration of ribitol of 10 μM.
Therefore, metabolism is unlikely to be a major elimination pathway of ribitol.

P448L FKRP mutant mice = experiment: Efficacy in P448L FKRP mutant mouse model; assay type: in vivo
Experimental: Glycosylation levels increased from undetectable levels to up to 26% in skeletal muscles with a reduction in disease specific pathology such as central nucleated fibers (diaphragm) and fibrosis (heart).
Ribitol was studied in a P448L FKRP mutant mouse model to assess drug-mediated improvements in matriglycan expression and muscle performance. In one study the mutant mice were treated with doses of 10 g/kg daily by oral gavage or 2.5 g/kg ribitol IV injection weekly for one month.
In a long-term efficacy study the FKRP P448L mutant mice were dosed up to one year by oral gavage. Matriglycan expression was increased as measured by immunohistochemistry and Western Blot analysis after six months of dosing at 2 g/kg, 5 g/kg, and 10 g/kg daily (FIG. 3). […] Diaphragmatic performance was assessed using whole body plethysmography (FIGS. 5A-5F).

in vivo [4] = settings: minipig, po
Experimental: The purpose of this study was to determine the MTD following two oral doses 6±0.5 hours apart (Phase 1) and to characterize the toxicity and TK profile following 7 days BID dosing with ribitol with 6±0.5 hours between doses in minipigs.
Minipigs were assessed for viability, clinical signs, body weight, food consumption, clinical pathology (hematology, coagulation, and serum chemistry), organ weights (adrenal glands, brain, heart, kidneys, liver with gall bladder, ovary, spleen, testes, and thymus), and macroscopic pathology at necropsy. Blood was taken for plasma TK analysis on Days 1 and 7.
In Phase 1, Bama minipigs (2/sex/group) were ribitol at 0.3, 1.0, 1.5, or 2.0 g/kg/dose BID (0.6, 2.0, 3.0, or 4.0 g/kg/day) with 5.5 to 6.5 hours between doses. […] Minipigs were assessed for viability, clinical signs, body weight, food consumption, and macroscopic findings at necropsy.
Doses were selected for Phase 2 based on the Phase 1 study results and in compliance with the guidance criteria for high dose selection for general toxicity studies (ICH M3 [R2]). In this phase, minipigs (2/sex/group) were given oral doses of 0 (vehicle control, water), 0.1, 0.3, or 1.0 g/kg/dose ribitol BID with 5.5 to 6.5 hours between doses (0.2, 0.6, or 2.0 g/kg/day, respectively).

in vivo [5] = experiment: in vivo; parameters: species or system mouse
[6] = female, 0.5 g/kg, 0.5 g/kg/dose BID, Day 1, F
[7] = female, 0.5 g/kg, 0.5 g/kg/dose BID, Day 7, F
[8] = female, 1 g/kg, 1.0 g/kg/dose BID, Day 1, F
[9] = female, 1 g/kg, 1.0 g/kg/dose BID, Day 7, F
[10] = female, 1.5 g/kg, 1.5 g/kg/dose BID, Day 1, F
[11] = female, 1.5 g/kg, 1.5 g/kg/dose BID, Day 7, F
[12] = male, 0.5 g/kg, 0.5 g/kg/dose BID, Day 1, M
[13] = male, 0.5 g/kg, 0.5 g/kg/dose BID, Day 7, M
[14] = male, 1 g/kg, 1.0 g/kg/dose BID, Day 1, M
[15] = male, 1 g/kg, 1.0 g/kg/dose BID, Day 7, M
[16] = male, 1.5 g/kg, 1.5 g/kg/dose BID, Day 1, M
[17] = male, 1.5 g/kg, 1.5 g/kg/dose BID, Day 7, M

## OC[C@@H](O)[C@@H](O)[C@@H](O)CO [ribitol, (2R,3s,4S)-Pentane-1,2,3,4,5-pentol]
[1]; Day 7 vs Day 1, any dose level
  drug accumulation: no apparent drug accumulation
[1]; after the first dose, Days 1 and 7 (exception females 0.5 g/kg BID Day 1)
  time of maximum plasma concentrations: 6.5 h
[1]; [6]
  Cmax: 141 µg/mL
  Tmax: 0.5 h
  AUC(0-t): 298 µg·h/mL
[1]; [7]
  Cmax: 100 µg/mL
  Tmax: 6.5 h
  AUC(0-t): 218 µg·h/mL
[1]; [8]
  Cmax: 282 µg/mL
  Tmax: 6.5 h
  AUC(0-t): 427 µg·h/mL
[1]; [9]
  Cmax: 210 µg/mL
  Tmax: 6.5 h
  AUC(0-t): 319 µg·h/mL
[1]; [10]
  Cmax: 339 µg/mL
  Tmax: 6.5 h
  AUC(0-t): 504 µg·h/mL
[1]; [11]
  Cmax: 266 µg/mL
  Tmax: 6.5 h
  AUC(0-t): 602 µg·h/mL
[1]; [12]
  Cmax: 121 µg/mL
  Tmax: 6.5 h
  AUC(0-t): 246 µg·h/mL
[1]; [13]
  Cmax: 118 µg/mL
  Tmax: 6.5 h
  AUC(0-t): 170 µg·h/mL
[1]; [14]
  Cmax: 265 µg/mL
  Tmax: 6.5 h
  AUC(0-t): 414 µg·h/mL
[1]; [15]
  Cmax: 237 µg/mL
  Tmax: 6.5 h
  AUC(0-t): 345 µg·h/mL
[1]; [16]
  Cmax: 316 µg/mL
  Tmax: 6.5 h
  AUC(0-t): 595 µg·h/mL
[1]; [17]
  Cmax: 305 µg/mL
  Tmax: 6.5 h
  AUC(0-t): 562 µg·h/mL
[2]; Bama, minipig, plasma, IV 10 mg/kg, female
  AUC(0-inf): 17 µg·h/mL
[2]; Bama, minipig, plasma, IV 10 mg/kg, female, read-out: T1/2 (converted)
  half-life: 0.556 h
[2]; Bama, minipig, plasma, IV 10 mg/kg, female, read-out: Vss
  Vd: 0.417 L/kg
[2]; Bama, minipig, plasma, IV 10 mg/kg, male
  AUC(0-inf): 11.2 µg·h/mL
[2]; Bama, minipig, plasma, IV 10 mg/kg, male, read-out: T1/2 (converted)
  half-life: 0.545 h
[2]; Bama, minipig, plasma, IV 10 mg/kg, male, read-out: Vss
  Vd: 0.603 L/kg
[2]; Bama, minipig, plasma, IV 30 mg/kg, female
  AUC(0-inf): 57 µg·h/mL
[2]; Bama, minipig, plasma, IV 30 mg/kg, female, read-out: T1/2 (converted)
  half-life: 0.748 h
[2]; Bama, minipig, plasma, IV 30 mg/kg, female, read-out: Vss
  Vd: 0.582 L/kg
[2]; Bama, minipig, plasma, IV 30 mg/kg, male
  AUC(0-inf): 35.8 µg·h/mL
[2]; Bama, minipig, plasma, IV 30 mg/kg, male, read-out: T1/2 (converted)
  half-life: 0.519 h
[2]; Bama, minipig, plasma, IV 30 mg/kg, male, read-out: Vss
  Vd: 0.5 L/kg
[2]; Bama, minipig, plasma, IV 100 mg/kg, female
  AUC(0-inf): 210 µg·h/mL
[2]; Bama, minipig, plasma, IV 100 mg/kg, female, read-out: T1/2 (converted)
  half-life: 0.993 h
[2]; Bama, minipig, plasma, IV 100 mg/kg, female, read-out: Vss
  Vd: 0.434 L/kg
[2]; Bama, minipig, plasma, IV 100 mg/kg, male
  AUC(0-inf): 150 µg·h/mL
[2]; Bama, minipig, plasma, IV 100 mg/kg, male, read-out: T1/2 (converted)
  half-life: 0.773 h
[2]; Bama, minipig, plasma, IV 100 mg/kg, male, read-out: Vss
  Vd: 0.449 L/kg
[2]; IV 10 mg/kg, female
  CLs: 10.1 mL/min/kg
[2]; IV 10 mg/kg, male
  CLs: 15.1 mL/min/kg
[2]; both sexes, Bama, plasma, iv, minipig, range, read-out: T1/2 following the IV dose
  half-life: 0.519 to 0.993 h
[2]; both sexes, Bama, plasma, minipig, IV 10-100 mg/kg, range, read-out: Systemic clearance (CLs)
  clearance: 7.95 to 15.1 mL/min/kg
[2]; both sexes, Bama, plasma, minipig, IV, range, read-out: Volume of distribution at steady state (Vss)
  Vd: 0.417 to 0.603 L/kg
[3]
  metabolic stability in liver microsomes, cytosol, hepatocytes: stable; also recorded: not metabolized by the enzymes in the liver
P448L FKRP mutant mice; 2, 5 g/kg/day, 5 g/kg/dose BID, 3.3 g/kg/dose TID
  treadmill exhaustion running distance and running time: improvements
P448L FKRP mutant mice; 6 months
  creatine kinase activity: decreased with increasing doses
P448L FKRP mutant mice; 6 months, 2 g/kg/day
  increase in running time: 50-75%
  increase in treadmill distance: 50%
P448L FKRP mutant mice; FKRP mutant mouse models
  efficacious dose: 500 mg/kg
P448L FKRP mutant mice; from undetectable levels
  glycosylation levels in skeletal muscles: up to 26%
P448L FKRP mutant mice; long-term oral dosing
  muscle histology: decreases in fibrosis
P448L FKRP mutant mice; oral or intravenous
  levels of ribitol, ribitol-5-phosphate, CDP-ribitol in heart and leg muscles versus untreated mice: up to 4 times
In vivo [4]; both, Bama
  MTD at 14 days: ≥ 4000 mg/kg/day
In vivo [4]
  MTD: ≥ 2.0 g/kg/dose BID
In vivo [5]; CD-1, mouse, po, 0.5 mg/kg/day, AUC(0-24), calculated exposure
  AUC(0-t): 182 µg·h/mL
In vivo [5]; CD-1, mouse, po, 2 g/kg/day, AUC(0-24), calculated exposure
  AUC(0-t): 727 µg·h/mL
In vivo [5]; female, CD-1, mouse, po, 3 g/kg/day, Steady-state AUC(0-24)
  AUC(0-t): 839 µg·h/mL
In vivo [5]; female, mouse, 3 g/kg/day, Steady-state AUC(0-24)
  AUC(0-t): 749 µg·h/mL
In vivo [5]; male, CD-1, mouse, po, 3 g/kg/day, Steady-state AUC(0-24)
  AUC(0-t): 1340 µg·h/mL
In vivo [5]; male, mouse, 3 g/kg/day, Steady-state AUC(0-24)
  AUC(0-t): 974 µg·h/mL
